4 compounds from US20050130903A1, “Therapeutic agents and methods of use thereof for the modulation of angiogenesis” (priority 2000, published 2005) can be followed below.

One series concerns the target T1, MetAP2 (Homo sapiens, UniProt P50579).
T1 construct: made in house; host or cells: insect cells
The series is described as follows: MetAP2 enzyme assay. Format: biochemical. The following applies: read-out: MetAP2 Assay IC50. How it is done:
Finally, the ability of the angiogenesis inhibitor compounds of the invention to modulate the activity of MetAP2 may be tested as follows. Recombinant human MetAP2 may be expressed and purified from insect cells as described in Li and Chang, (1996) Biochem. Biophys. Res. Commun. 227:152-159. Various amounts of angiogenesis inhibitor compound is then added to buffer H (10 mM Hepes, pH 7.35, 100 mM KCl, 10% glycerol, and […]) containing 1 nM purified recombinant human MetAP2 and incubated at 37° C. for 30 minutes. To start the enzymatic reaction a peptide containing a methionine residue, e.g., Met-Gly-Met, is added to the reaction mixture (to a concentration of 1 mM). Released methionine is subsequently quantified at different time points (e.g., at 0, 2, 3, and 5 minutes) using the method of Zou et al. (1995) Mol. Gen Genetics 246:247-253).
(§1) The angiogenesis inhibitor compounds of the invention were tested for their ability to modulate human endothelial cell growth and for their ability to modulate the activity of MetAP2. The MetAP2 enzyme assay was performed essentially as described in Turk, B. et al. (1999) Chem. & Bio. 6: 823-833, the entire contents of which are incorporated herein by reference. The bovine aortic endothelial cell growth assay (Baec assay) was performed essentially as described in Turk, B. et al. (supra), the entire contents of which are incorporated herein by reference.

Series [1] relates to bovine aortic endothelial cell. Description: bovine aortic endothelial cell growth assay (Baec assay). Format: cell-based. The settings on record: Bos taurus, BAEC. The method, then:
as §1

In series [2] the test system is human umbilical vein endothelial cells (HUVEC). Description: human endothelial cell growth assay (Huvec assay). Format: cell-based. The settings on record: Homo sapiens, HUVEC; bFGF-supplemented EGM, MTT. How it is done: For the human endothelial cell growth assay, human umbilical vein endothelial cells (HUVEC) were maintained in Clonetics endothelial growth medium (EGM) in a 37° C. humidified incubator. Cells were detached with trypsin and pelleted by centrifugation at 300×g for 5 minutes at room temperature. HUVEC were added to 96-well plates at 5,000 cells/well. After incubating for 6 hours, the medium was replaced with 0.2 ml fresh EGM supplemented with 0.5 nM bFGF and the desired concentration of test angiogenesis inhibitor compound. Test angiogenesis inhibitor compounds were initially dissolved in ethanol at stock concentrations of either 10 mM or 0.1 mM, and subsequently diluted in EGM to obtain concentrations from […] to 10 μM. After 48 hours at 37° C., the medium was replaced with fresh bFGF-supplemented EGM and test angiogenesis inhibitor compound. Following incubation for an additional 48 hours at 37° C. MTT (3-[4,5-dimethylthiazol-2-yl]-2,5-diphenyl-tetrazolium bromide) was added to 1 mg/ml. After 2-4 hours at 37° C. the medium was replaced with 0.1 ml/well isopropanol. The plates were placed on a shaker for 15 minutes at room temperature and analyzed in a Labsystems Multiskan plate spectrophotometer at an optical density of 570 nm.

Series [3] can be described thus: stability in liver microsomes. Format: in vitro ADME, rat. The settings on record: NADPH regenerating system; for half-life at 3 μM: pH 7.4, male rat liver microsomes 0.5 mg/mL. The method, then: The stability of the angiogenesis inhibitor compounds in liver microsomes was also tested. The test angiogenesis inhibitor compound at a concentration of 3 μM was incubated with male rat liver microsomes (0.5 mg/mL protein) in the presence of a NADPH regenerating system (1 mM NADP, 10 mM G6P, 1 U/mL G6PdH2, 3 mM MgCl2 ) in 100 mM Phosphate buffer at pH 7.4 at 37° C. Incubations were performed in the presence and absence of 1 μM epoxide hydrolase (EH) inhibitor N-cyclohexyl-N′-(3-phenylpropyl)urea (M. Morisseau et al. (1999) PNAS 96:8849-54) and quantitative analysis performed using LC/MS/MS.
The parent compound remaining (relative to time 0) in the incubation mixture was plotted as a function of time; a first order exponential equation was fit to the observed data, and the elimination half-lives associated with the disappearance of the test compound were determined.
(In general: Liver microsomes are a subcellular fraction often used to study metabolism.)

Series [4] concerns collagen-induced arthritis. The series is described as follows: collagen-induced arthritis model. Format: in vivo, Louvain rats. The settings on record: for mean radiological evaluation score: control group 2.2. The method, then:
The efficacy of the compound described above in example 5 was evaluated using a collagen-induced arthritis model. Briefly, syngeneic 8-week-old female Louvain rats were immunized intradermally under ether anesthesia on Day 0 with 0.5 mg chick collagen II (Genzyme, Boston, Mass.) solubilized in 0.1M acetic acid and emulsified in Incomplete Freund's Adjuvant (Difco, Detroit, Mich.). Using this method, more than 90% of rats typically develop synovitis in both hind limbs 10-14 days post immunization. […] The compound of example 5 was dissolved in a combination of ethanol and distilled water. The rats were dosed commencing on day 10 post immunization as follows: (1) control group: vehicle only daily via intravenous injection (iv) (12 rats), (2) high dose group: 30 mg/kg of the compound of example 5 iv every other day (12 rats), (3) low dose group: 15 mg/kg of the compound of example 5 iv every day (12 rats) and (4) oral group: 100 mg/kg of the compound of example 5 every other day by gavage (11 rats).
Daily clinical evaluations of each paw were graded on an integer scale ranging from 0 to 4, where a score of 0 indicates a normal, unaffected limb, and 4 indicates severe joint destruction. The clinical score is the sum of the four limb scores, and has a maximum possible value of 16. Collagen induced arthritis typically develops only in the hind limbs; therefore, a score of 6 to 8 represents severe arthritis.
Radiologic evaluations of the hind limbs were performed by an investigator blinded to the treatment protocol. The score assigned to each limb was based on (1) the degree of soft tissue swelling, (2) narrowing of the space between joints, (3) degree of periosteal new bone formation and (4) the presence of erosions or ankylosis. Each limb was scored on a scale of 1 to 3, with 1 representing a normal limb and 3 representing severe joint destruction.

For the next series, the system named is human tumor cell lines. Description: panel of cancer cell lines, overall. Format: cell-based. The following applies: in words, summary of Table VIII. How it is done:
The compound of example 5 was also evaluated against a panel of cancer cell lines (Alley, M. C. et al. […] Cancer Research 48: 589-601; Grever, M. R., et al. (1992) Seminars in Oncology, Vol. 19, No. 6, pp 622-638; Boyd, M. R., and Paull, K. D. (1995) Drug Development Research 34: 91-109). The human tumor cell lines of the cancer screening panel were grown in RPMI 1640 medium containing 5% fetal bovine serum and 2 mM L-glutamine. Cells were inoculated into 96 well microtiter plates in 100 μL at plating densities ranging from 5,000 to 40,000 cells/well depending on the doubling time of individual cell lines. […]
Following drug addition, the plates were incubated for an additional 48 hours at 37° C., 5% CO2, 95% air, and 100% relative humidity. […] Bound stain was subsequently solubilized with 10 mM trizma base, and the absorbance was read on an automated plate reader at a wavelength of 515 nm. […] Using the seven absorbance measurements [time zero, (Tz), control growth, (C), and test growth in the presence of drug at the five concentration levels (Ti)], the percentage growth was calculated at each of the drug concentrations levels.
Percentage growth inhibition was calculated as: [(Ti−Tz)/(C−Tz)]×100 for concentrations for which Ti>/=Tz [(Ti−Tz)/Tz]×100 for concentrations for which Ti<Tz. […]

Series [5] is described as follows: plasma stability in human plasma. The following applies: human. Format: in vitro ADME. How it is done: The plasma stability of the angiogenesis inhibitor compounds of the invention was also tested in human plasma at 37° C. (at a 20 μM concentration of the angiogenesis inhibitor compound). The matrix minus the test angiogenesis inhibitor compound was equilibrated at 37° C. for 3 minutes. The assay was initiated by addition of the test compound, and the reaction mixture was incubated in a shaking water bath at 37° C. […] The supernatant was analysed by Liquid Chromatography/Mass spectrometry (LC/MS) using a four point standard curve to obtain percent recovery.
The parent compound remaining (relative to time 0) in the incubation mixture was plotted as a function of time; a first order exponential equation was fit to the observed data, and the elimination half-lives associated with the disappearance of the test angiogenesis inhibitor compound were determined.

For orientation: IC50 means the concentration that inhibits the measured activity by half.

SMILES strings stand for the structures. Read-outs that look alike come from different tables or passages of the source.

T1 sequence (P50579 whole entry): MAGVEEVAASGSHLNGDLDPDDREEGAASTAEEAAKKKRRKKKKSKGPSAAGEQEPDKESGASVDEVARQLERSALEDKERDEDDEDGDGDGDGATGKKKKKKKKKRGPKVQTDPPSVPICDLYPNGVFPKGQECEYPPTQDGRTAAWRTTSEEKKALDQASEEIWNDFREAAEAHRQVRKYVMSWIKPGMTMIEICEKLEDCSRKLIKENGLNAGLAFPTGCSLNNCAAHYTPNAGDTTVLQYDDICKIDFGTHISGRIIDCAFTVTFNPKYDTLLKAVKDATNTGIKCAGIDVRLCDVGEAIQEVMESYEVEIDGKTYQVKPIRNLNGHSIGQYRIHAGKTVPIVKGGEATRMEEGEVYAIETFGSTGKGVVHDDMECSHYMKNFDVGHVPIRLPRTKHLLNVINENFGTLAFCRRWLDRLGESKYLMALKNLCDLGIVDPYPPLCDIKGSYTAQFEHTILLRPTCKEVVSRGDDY

For `COC(=O)[C@@H](CC(C)C)NC(=O)O[C@@H]1CC[C@]2(CO2)[C@@H]([C@@]2(C)O[C@@H]2CC=C(C)C)[C@@H]1OC` [Example 3, 2-{(3R,4S,5S,6R)-5-Methoxy-4-[(2R,3R)-2-methyl-3-(3-methyl-but-2-enyl)-oxiranyl]-1-oxa-spiro[2.5]oct-6-yloxycarbonylamino}-4-methyl-pentanoic acid methyl ester], the IC50 on MetAP2 was found to be 5.5 nM; in series [1], 0.118 nM; in series [2], 0.038 nM.

Turning to `CO[C@@H]1[C@H](OC(=O)NC(=O)CCl)CC[C@]2(CO2)[C@H]1[C@@]1(C)O[C@@H]1CC=C(C)C` [TNP-470, reference compound], the “T1/2 (with EH inhibitor)” value in series [3] (male rat liver microsomes 0.5 mg/mL, 3 μM, with 1 μM EH inhibitor) is above 1.0 min. The half-life at 3 μM in series [3] (without EH inhibitor, read-out: T1/2 (without EH inhibitor)) is above 1 min.

Take `COC(=O)[C@@H](NC(=O)O[C@@H]1CC[C@]2(CO2)[C@@H]([C@@]2(C)O[C@@H]2CC=C(C)C)[C@@H]1OC)C(C)C` [Example 1, 2-{(3R,4S,5S,6R)-5-Methoxy-4-[(2R,3R)-2-methyl-3-(3-methyl-but-2-enyl)-oxiranyl]-1-oxa-spiro[2.5]oct-6-yloxycarbonylamino}-3-methyl-butyric acid methyl ester]: the IC50 at MetAP2 worked out at 4.7 nM; in series [1], 0.017 nM; in series [2] it was 0.018 nM.

For the compound `CO[C@@H]1[C@H](OC(=O)N[C@@H](C(N)=O)C(C)C)CC[C@]2(CO2)[C@H]1[C@@]1(C)O[C@@H]1CC=C(C)C` [Example 5, (1-Carbamoyl-2-methyl-propyl)-carbamic acid-(3R,4S,5S,6R )-5-methoxy-4-[(2R,3R)-2-methyl-3-(3-methyl-but-2-enyl)-oxiranyl]-1-oxa-spiro[2.5]oct-6-yl ester], the “mean daily clinical score (FIG. 2)” value in series [4] (each treatment group, 19 day period from day 10) is “significant therapeutic benefit”. The “mean radiological evaluation score” value in series [4] (high dose group: 30 mg/kg iv every other day) is 0.6. In series [4] (low dose group: 15 mg/kg iv every day), the “mean radiological evaluation score” value was 0.6. Besides, the “mean radiological evaluation score” value in series [4] (oral group: 100 mg/kg every other day by gavage) stood at 1.6. The half-life at 3 μM in series [3] (male, rat, liver microsomes, with 1 μM EH inhibitor, read-out: T1/2 (with EH inhibitor)) turned out to be 12.1 ± 1 min. In addition, the half-life at 3 μM in series [3] (male, rat, liver microsomes, without EH inhibitor, read-out: T1/2 (without EH inhibitor)) turned out to be 11.9 ± 1 min. Moreover, the “inhibitory effect on tumor cell lines” value with human tumor cell lines is recorded as “significant inhibitory effect on a wide variety of tumor cell lines”. In series [5], the recovery at 0 min, 20 μM amounted to 100%; the recovery at 15 min, 20 μM was found to be 108%; the recovery at 30 min, 20 μM came out at 103%; the recovery at 60 min, 20 μM stood at 97%. In series [5], this compound displayed a recovery at 90 min, 20 μM of 129% and a recovery at 120 min, 20 μM of 107%. The compound further came in with a half-life at 20 μM in series [5] (plasma) of at least 500 min.
